Values of other authors in patent publication US6355670B1, “Use of estrogen antagonists and estrogen agonists in inhibiting pathological conditions” (Pfizer, Inc., priority 1996, dated 2002).

What was measured:
[1] = in vivo or in vitro
estrogen receptor = biological target: T1, estrogen receptor (Homo sapiens, UniProt P03372); settings: higher, relative to tamoxifen
T1 sequence (P03372 1-595): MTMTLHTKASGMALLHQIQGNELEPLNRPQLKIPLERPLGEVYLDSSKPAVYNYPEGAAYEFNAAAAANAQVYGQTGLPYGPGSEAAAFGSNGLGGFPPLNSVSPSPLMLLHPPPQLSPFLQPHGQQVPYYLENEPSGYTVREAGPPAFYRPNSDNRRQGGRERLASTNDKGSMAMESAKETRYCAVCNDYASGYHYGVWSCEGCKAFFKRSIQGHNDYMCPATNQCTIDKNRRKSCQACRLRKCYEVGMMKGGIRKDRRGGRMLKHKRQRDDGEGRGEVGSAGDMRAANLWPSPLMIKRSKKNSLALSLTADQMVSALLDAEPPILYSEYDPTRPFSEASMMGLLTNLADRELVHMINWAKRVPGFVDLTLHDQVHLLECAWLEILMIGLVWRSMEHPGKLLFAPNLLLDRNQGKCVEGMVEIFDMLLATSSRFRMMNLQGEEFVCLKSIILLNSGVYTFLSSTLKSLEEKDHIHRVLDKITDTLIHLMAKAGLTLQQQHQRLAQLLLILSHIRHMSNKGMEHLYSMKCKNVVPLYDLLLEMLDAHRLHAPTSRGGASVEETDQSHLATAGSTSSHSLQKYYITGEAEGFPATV

[2] = system: intact or ovariectomized female rats
[3] = system: streptozotocin diabetic rats; settings: implanted

CC/C(=C(/c1ccc(OCCN(C)C)cc1)c1cccc(O)c1)c1ccccc1 [droloxifene, 3-hydroxytamoxifen]
carcinogenic or mutagenic effects [1]: devoid of in vivo or in vitro carcinogenic or nutagenic effects | binding affinity to the estrogen receptor compared to tamoxifen (estrogen receptor): 10-60 fold

CC/C(=C(\c1ccccc1)c1ccc(OCCN(C)C)cc1)c1ccccc1 [tamoxifen]
liver tumors (rats): causes liver tumors in rats

C[C@]12CC[C@H]3[C@@H](CCC4=CC(=O)CC[C@@]43C)[C@@H]1CC[C@@H]2O [testosterone]
insulin resistance [2]: marked insulin resistance | ability of residual insulin to maintain glycemic control [3]: antagonized the ability of residual insulin to maintain glycemic control
